{"source": "the NIST ThermoML archive (doi:10.1021/acs.jced.5b00488)", "conditions": "Crystal; visual observation", "note": "± gives the expanded uncertainty stated by the source."}
{"smiles": "CC(COCc1ccc(O)c2ncccc12)(COCc1ccc(O)c2ncccc12)COCc1ccc(O)c2ncccc12", "values": [{"measurement": "Triple point temperature", "value": "468.15 ± 4", "unit": "K"}]}
